According to paper PMC12587574, “Mass balance, pharmacokinetics, metabolism, and excretion of radiolabeled acoziborole, a potential novel treatment for human African trypanosomiasis, following single microtracer oral dose to humans” (Antimicrobial Agents and Chemotherapy, 2025):
Several values for one entry are separate records, joined by “and”; a condition that tells them apart may be missing. Identical values can stand only once. Like-named read-outs stand apart in the source and are kept apart here.

Columns and labels:
[1] = design: method as in PMID 21738803; conditions: liver sub-cellular fractions from rodents, dogs, cynomolgus monkeys, and humans; cited from earlier work
[2] = tested on: gambiense HAT infection; design: method as in PMID 36460027; conditions: single oral 960 mg, fasting, cited from earlier work
[3] = target: T1, CYP3A4 (Homo sapiens, UniProt P08684); assay: Incubation with CYP450 recombinant enzymes (Bactosomes) and NADPH; type: in vitro ADME; conditions: 1 µM
T1 construct: purchased

[4] = target: T2, CYP2C8 (Homo sapiens, UniProt P10632); assay: as above; type: in vitro ADME; conditions: 1 µM
T2 construct: purchased
T2 sequence (P10632 1-490): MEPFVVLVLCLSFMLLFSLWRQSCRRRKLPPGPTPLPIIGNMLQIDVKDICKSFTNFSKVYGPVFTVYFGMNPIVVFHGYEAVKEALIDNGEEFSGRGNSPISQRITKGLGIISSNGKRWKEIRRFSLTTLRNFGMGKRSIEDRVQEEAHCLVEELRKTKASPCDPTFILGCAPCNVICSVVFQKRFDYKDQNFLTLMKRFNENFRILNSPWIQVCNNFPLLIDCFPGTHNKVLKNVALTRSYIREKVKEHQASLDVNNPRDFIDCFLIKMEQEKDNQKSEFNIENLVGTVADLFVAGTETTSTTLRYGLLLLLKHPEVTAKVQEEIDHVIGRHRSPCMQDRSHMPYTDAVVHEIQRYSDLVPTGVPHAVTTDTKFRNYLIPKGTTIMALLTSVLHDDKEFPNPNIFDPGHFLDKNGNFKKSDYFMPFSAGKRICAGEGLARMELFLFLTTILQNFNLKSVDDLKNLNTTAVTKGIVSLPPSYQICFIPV

[5] = Excretion and mass balance of total radioactivity in urine and feces (AMS); type: in vivo, human
Procedure: (§1) Urine samples were collected before IP administration (single urine void) and then during intervals of 0–6, 6–12, 12–24, 24–48, 48–72, 72–96, 96–120, 120–168, 168–192, 192–216, and 216–240 h post-dose and for the additional 48-h collection period starting on Day 15 post-dose, that is, 336–384 h. Samples were acidified with citric acid to avoid acoziborole degradation and were refrigerated until the end of the block collection periods. The total weight and volume of urine were then recorded. At the end of each collection period, two aliquots of acidified urine (20 mL) were taken from the sample and stored in polypropylene tubes at −20°C until further analysis for total radioactivity. Two aliquots of 1 mL acidified urine were collected into tubes containing bovine serum albumin in aqueous solution (to avoid non-specific adsorption of acoziborole) and NaCl for acoziborole and SCYX-3109 assays. Urine samples for metabolite profiling were pooled for each participant according to the time intervals reported above, from 0 to 240 h.
Feces were collected before dosing and at block intervals of 0–6, 6–12, 12–24, 24–48, 48–72, 72–96, 96–120, 120–168, and 168–240 h post-dose and for five additional 48-h home collection periods starting on Days 15, 29, 59, 89, and 119. At the end of each collection period, a portion of the sample (50 g) was retained and stored at approximately −20°C until analyzed. The remaining fecal homogenate was combined with that collected at the end of each time interval and stored at approximately −20°C.
TNO (Leiden, the Netherlands) performed the analysis of total radioactivity and the metabolite profiling and identification. All blood, plasma, urine, and fecal homogenate samples were analyzed for total radioactivity by accelerator mass spectrometry (AMS). AMS analysis was performed on a 1 MV multi-element AMS, model 4110 Bo, high voltage engineering (software: AMS 155), using Australian National University (ANU) sucrose-8542 (C12H22O11) with a certified ^14C/^12C isotope ratio ([10]) as the system suitability test sample and [^14C]-paracetamol as an AMS quality check sample.
For each (diluted) sample, 5 µL blood, 5 µL plasma, 15 µL urine, or 30 mg fecal homogenate prepared in 1% CMC solution (1% CMC solution:feces ratio of 4:1) were transferred to tin foil cups. The samples were dried under a stream of nitrogen and subsequently placed in the elemental analyzer (EA, Vario Micro, Elementar, Germany), which acts as an autosampler and combustion device for the AMS. Single samples of blood, plasma, and urine were analyzed. Fecal homogenates were analyzed in triplicate, and the averaged value was reported. Total radioactivity in plasma and blood was expressed as ng equivalents (Eq) of acoziborole/mL. The LLOQ was 47.3 ngEq/mL in plasma (1.51 mBq/mL), 165.4 ngEq/mL in blood (5.28 mBq/mL), 33.8 ngEq/mL in urine (1.08 mBq/mL), and 87.1 ngEq/mL in feces (2.78 mBq/mL).
Blood-to-plasma ratio was calculated based on Cmax and AUC values. For total radioactivity excreted in urine, feces, and both combined, the following parameters were calculated: total amount of total radioactivity excreted over the time interval between t1 and t2 (Aet1−t2), Aet1−t2 expressed as a percentage of the radioactive dose administered (%Aet1−t2), CumAe, and Cum%Ae. For CumAe calculation, the recovery of total radioactivity during WinNonlin time intervals in which urine and feces were not collected was estimated using the area under the excretion rate-time curve from the end of the preceding collection interval to the start of the subsequent collection interval.

[6] = Urinary excretion / renal clearance of acoziborole and SCYX-3109 by LC-MS/MS; type: in vivo; conditions: male, human, urine and plasma; CumAe0–240h/AUC0–240h; mean ± SD; 960 mg single oral dose of acoziborole; read-out: renal clearance CLr0–240h (converted)
Procedure: as §1, with “Urine samples for metabolite profiling were pooled for each participant according to the time intervals reported above, from 0 to 240 h.” left out
SGS Belgium (Wavre, Belgium) performed the analysis to determine acoziborole and SCYX-3109 concentrations, using validated bioanalytical assays with liquid chromatography with tandem mass spectrometry (LC-MS/MS) with a Supelco Ascentis Express C8, 2.7 µm, 50 × 2.1 mm I.D. separation column. In plasma, the lower limit of quantification (LLOQ) was 25 ng/mL for acoziborole and 10 ng/mL for SCYX-3109. […]

[7] = 960 mg single oral dose, N = 6, mean and SD
[8] = 960 mg single oral dose, N = 6, mean and SD, listed as [^14C]-acoziborole
[9] = t set to 1440 h (60 days), N = 6, mean and SD
[10] = t set to 1440 h (Day 60), N = 6, mean and SD, listed as [^14C]-acoziborole

T1 sequence (P08684 whole entry): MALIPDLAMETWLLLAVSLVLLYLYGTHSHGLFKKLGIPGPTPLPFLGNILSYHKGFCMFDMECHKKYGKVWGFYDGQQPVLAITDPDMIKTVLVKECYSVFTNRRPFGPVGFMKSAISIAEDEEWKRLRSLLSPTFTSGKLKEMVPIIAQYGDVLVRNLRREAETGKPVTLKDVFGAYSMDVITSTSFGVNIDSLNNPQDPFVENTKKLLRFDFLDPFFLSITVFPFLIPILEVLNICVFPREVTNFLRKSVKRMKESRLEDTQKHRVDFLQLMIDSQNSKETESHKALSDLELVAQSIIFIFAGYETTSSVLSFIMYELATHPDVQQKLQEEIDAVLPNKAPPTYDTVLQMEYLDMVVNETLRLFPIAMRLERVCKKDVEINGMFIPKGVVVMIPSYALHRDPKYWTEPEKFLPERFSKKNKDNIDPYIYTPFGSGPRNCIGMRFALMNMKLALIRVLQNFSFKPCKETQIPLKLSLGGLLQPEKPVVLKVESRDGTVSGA

Structure (SMILES): CC1(C)OB(O)c2cc(NC(=O)c3ccc(F)cc3C(F)(F)F)ccc21 [acoziborole]
- metabolic stability [1]: metabolically stable
- safety and tolerability profile ([2]; 208 patients): acceptable safety and tolerability profile
- treatment success rate at 18 months ([2]; 159 out of 162 patients, evaluable population): 98.1%
- treatment success rate at 18 months ([2]; late-stage patients, modified intention-to-treat population): 95.2%
- metabolism by recombinant CYP3A4 [3]: metabolized by
- metabolism by recombinant CYP2C8 [4]: metabolized by
- Cum%Ae0-240h dose, total radioactivity recovered (urine and faeces) [5, 7]: 58.6 ± 8.6%
- Cum%Ae0-384h dose, total radioactivity recovered (urine and faeces) [5, 7]: 70.8 ± 8.1%
- CumAe0-240h, total radioactivity in faeces [5, 7]: 488.8 ± 84.8 mgEq
- CumAe0-240h, total radioactivity in urine [5, 7]: 74.0 ± 18.5 mgEq
- CumAe0-240h, total radioactivity recovered (urine and faeces) [5, 7]: 562.9 ± 82.8 mgEq
- CumAe0-384h, total radioactivity in faeces [5, 7]: 574.9 ± 81.4 mgEq
- CumAe0-384h, total radioactivity in urine [5, 7]: 104.6 ± 28.9 mgEq
- CumAe0-384h, total radioactivity recovered (urine and faeces) [5, 7]: 679.6 ± 77.5 mgEq
- Cum%Ae0-240h dose, total radioactivity in faeces [5, 8]: 50.9 ± 8.8%
- Cum%Ae0-240h dose, total radioactivity in urine [5, 8]: 7.7 ± 1.9%
- Cum%Ae0-384h dose, total radioactivity in faeces [5, 8]: 59.9 ± 8.5%
- Cum%Ae0-384h dose, total radioactivity in urine [5, 8]: 10.9 ± 3.0%
- increment in excretion of total radioactivity ([5]; between Days 59 and 61 (up to 1,440 h)): < 1%
- absorbed fraction, estimated ([5]; fasting condition, assuming gastrointestinal transit time of approximately 3 days): ≥ 70 % of the dose
- geometric mean recovery of total radioactivity in urine and feces ([5]; over the total 1,392 h, CV% 5.5%): 87.2%
- CumAe0-t, total radioactivity in faeces [5, 9]: 712.1 ± 56.4 mgEq
- CumAe0-t, total radioactivity recovered (urine and faeces) [5, 9]: 838.4 ± 48.9 mgEq
- Cum%Ae0-t dose, total radioactivity in faeces [5, 10]: 74.2% and 74.2 ± 5.9%
- Cum%Ae0-t dose, total radioactivity recovered (urine and faeces) [5, 10]: 87.3% and 87.3 ± 5.1%
- CumAe0-t, total radioactivity in urine ([5]; urine collection limited to 384 h, N = 6, mean and SD): 104.6 ± 28.9 mgEq
- Cum%Ae0-t dose, total radioactivity in urine ([5]; urine collection limited to 384 h, N = 6, mean and SD, listed as [^14C]-acoziborole): 10.9% and 10.9 ± 3.0%
- CL renal [6]: 0.0333 mL/min
